According to article doi:10.1101/2021.08.27.457891v1, “Optical Control of Invertebrate nAChR and Behaviors with Dithienylethene-Imidacloprid” (biorxiv, 2021):

Experiments:
[1] = target: T1, Musca nAChR; housefly (Musca domestica) nAChR; assay: [3H]NMI radioligand displacement; format: binding; settings: competition with [3H]NMI
T1 construct: gene nAChRalpha1; pentameric channel

[2] = target: T2, cockroach nAChRs; cockroach nAChR membranes; assay: fluorescence polarization saturation binding; set-up: species or system Periplaneta americana; settings: DitIMI irradiated at 320 nm for 15 min (photostationary mixture, 67% closed form); 227 mg/L membranes; 22 °C, 1 h
T2 construct: gene nAChRalpha1; pentameric channel

In the case of `Cc1sc(CN2CCN(Cc3ccc(Cl)nc3)C2=N[N+](=O)[O-])cc1C1=C(c2cc(CN3CCN(Cc4ccc(Cl)nc4)C3=N[N+](=O)[O-])sc2C)C(F)(F)C(F)(F)C1(F)F` [open-DitIMI], the IC50 ([1]; unirradiated open form) is reported as 892 nM.

Compound `CC12SC(CN3CCN(Cc4ccc(Cl)nc4)C3=N[N+](=O)[O-])=CC1=C1C(=C3C=C(CN4CCN(Cc5ccc(Cl)nc5)C4=N[N+](=O)[O-])SC32C)C(F)(F)C(F)(F)C1(F)F` (stereo not shown) [closed-DitIMI] has an IC50 ([1]; after UV illumination, photostationary mixture (67% closed form)) of 33.2 nM and a Kd [2] of 13.5 nM.

In the case of `O=[N+]([O-])N=C1NCCN1Cc1ccc(Cl)nc1` [IMI], the IC50 [1] is reported as 28.8 nM.
